Measured values: paper PMC3625562, “Rapid Screening of Drug-Protein Binding Using High-Performance Affinity Chromatography with Columns Containing Immobilized Human Serum Albumin” (Journal of Analytical Methods in Chemistry, 2013)
Structures can show the parent of a compound that is named as a salt. Where two headings read alike, the source gives them in different places. Non-standard residues stand in square brackets, D forms with d. Residues, ends and D or L forms follow the SMILES beside them. Phe(4-Cl) = N[CH](Cc1ccc(Cl)cc1)C(=O)O; 2Nal = N[CH](Cc1ccc2ccccc2c1)C(=O)O; 3Pal = N[CH](Cc1cccnc1)C(=O)O

Legend:
plasma proteins [1] = conditions: cited from earlier work
[2] = molecular target: T1, immobilized human serum albumin (HSA) (Homo sapiens, UniProt P02768); assay: Drug-protein binding screening by HPLC on immobilized HSA column (HSA-HPLC); conditions: 0.5 mL/min
Protocol: (§1) Compounds were dissolved with water or water-ethanol (with different ratio) to a concentration of 100 µg/mL. The chromatographic peak was attained on a 5 μm Chiral-HSA, 50 × 3 mm column (Chrom Tech, France), which was preceded by an on-line filter. The ChemStation for LC 3D software was used for data acquiring and handling. As a generic rapid method, an isocratic mobile phase was selected. To simulate physiology environment, a mobile phase consisting of 0.9% NaCl (pH 7.0) at a flow rate of 0.5 mL/min was used. 10 µL aliquot of analyte solution was injected to HPLC to be analyzed.

[3] = molecular target: T1, immobilized human serum albumin (HSA); conditions: pH 7
Protocol: as §1

plasma proteins [4] = assay: PPB experiment by ultrafiltration; conditions: plasma, 10, 40, 200, 100, 2000, 100 ng/mL for A, B, C, D, E, F, 37°C 30 min, Microcon YM-30, triplicates; for fraction unbound at 30 min: plasma, PPB by ultrafiltration
Protocol: (§2) PPB Experiment for Test Compounds by Ultrafiltration
(§3) The stock solution (1.0 or 2 mg/mL) of test compounds was prepared by dissolving appropriate amount of compounds in water-methanol (50 : 50, v/v) mixture. Working solution (1, 10 or 100 μg/mL) was attained by diluted stock solution with water. A different volume of the working solution was added to a 2 mL eppendorf vial and evaporated to dryness under a stream of nitrogen in the thermostatically controlled water bath maintained at 55°C for about 20 min. […] The mixture was incubated at 37°C for 30 min. […] The filtrate was analyzed for the drug content by HPLC-MS.
(§4) The concentration of the filtrate was analyzed by HPLC-MS. […] The PPB by ultrafiltration was performed in triplicates for all the compounds studied.

[5] = molecular target: human serum albumin (HSA) (Homo sapiens, UniProt P02768); assay: Drug-protein binding screening by HPLC on immobilized HSA column (HSA-HPLC); conditions: human, pH 7
Protocol: as §1

plasma proteins [6] = assay: in vitro
Protocol: as §2, §3, §4

[7] = reported PPB values of reference compounds, ref not printed
[8] = reference compounds, Chiral-HSA 50 × 3 mm column, mobile phase 0.9% NaCl (pH 7.0), 100 µg/mL, 10 µL injected
[9] = test compounds, Chiral-HSA column, 0.9% NaCl (pH 7.0)

T1 sequence (P02768 25-609): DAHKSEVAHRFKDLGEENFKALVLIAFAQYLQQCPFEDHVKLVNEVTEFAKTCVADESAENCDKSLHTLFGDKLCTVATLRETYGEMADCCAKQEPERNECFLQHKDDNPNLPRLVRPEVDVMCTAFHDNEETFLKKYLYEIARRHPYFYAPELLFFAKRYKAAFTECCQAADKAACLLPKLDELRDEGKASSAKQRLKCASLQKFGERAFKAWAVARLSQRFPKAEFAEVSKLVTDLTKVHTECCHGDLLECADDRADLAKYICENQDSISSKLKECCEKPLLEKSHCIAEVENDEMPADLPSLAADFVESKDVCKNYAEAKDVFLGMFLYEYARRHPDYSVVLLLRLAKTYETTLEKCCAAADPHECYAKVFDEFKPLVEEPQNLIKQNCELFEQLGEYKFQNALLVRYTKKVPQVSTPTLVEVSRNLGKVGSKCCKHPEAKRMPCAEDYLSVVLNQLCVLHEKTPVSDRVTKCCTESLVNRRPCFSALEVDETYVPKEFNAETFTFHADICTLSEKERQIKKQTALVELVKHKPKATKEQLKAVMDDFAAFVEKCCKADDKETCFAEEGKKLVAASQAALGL
human serum albumin (HSA), sequence (P02768 25-609): as above

SMILES | PPB from literature (plasma proteins [1]; [7]) | Retention time [2, 8] | also measured
COC(=O)[C@H]1[C@H]2C[C@@H]3c4[nH]c5cc(OC)ccc5c4CCN3C[C@H]2C[C@@H](OC(=O)c2cc(OC)c(OC)c(OC)c2)[C@@H]1OC [Reserpine] | 96.0% | 0.71 min | –
CN(C)CCC(c1ccc(Cl)cc1)c1ccccn1 (stereo not shown) [Chlorphenamine maleate] | 37.5 (25–50) % | 5.93 min | –
CCC(=O)O[C@H]1CC[C@H]2[C@@H]3CCC4=CC(=O)CC[C@]4(C)[C@H]3CC[C@]12C [Testosterone propionate] | 98.0% | – | Retention time ([3]; human): 0.74 min
Cc1cc(C)nc(NS(=O)(=O)c2ccc(N)cc2)n1 [Sulfadimidine] | 80.0% | 6.22 min | –
O=C(C1CCCCC1)N1CC(=O)N2CCc3ccccc3C2C1 (stereo not shown) [Praziquantel] | 80.0% | 12.97 min | –
NS(=O)(=O)c1cc2c(cc1C(F)(F)F)NC(Cc1ccccc1)NS2(=O)=O (stereo not shown) [Bendroflumethiazide] | 94.0% | 3.27 min | –
O=C(O)c1ccccc1O [Salicylic acid] | 85.0 (80–90) % | – | –
Cc1cc(SCc2cnc(-c3ccc(C(F)(F)F)cc3)nc2)ccc1OCC(=O)O [Comp. E] | – | – | PPB by ultrafiltration (plasma proteins [4]): 99.5%; fraction unbound at 30 min (plasma proteins [4]): 0.005; fraction unbound at 100 µg/mL [5]: < 0.1
COc1cc(C(=O)O)ccc1O [Vanillic acid] | 56.3% | – | Retention time ([3]; human, 100 µg/mL): 3.11 min
OC(Cn1cncn1)(Cn1cncn1)c1ccc(F)cc1F [Fluconazole] | 11.5 (11-12) % | 1.07 min | –
CCN(CC)Cc1cc(-c2nc3c(Cl)nnc(OC)c3n2C)ccc1O [Comp. C] | – | – | PPB by ultrafiltration (plasma proteins [4]): 51.0%; fraction unbound at 30 min (plasma proteins [4]): 0.485; fraction unbound at 100 µg/mL [5]: > 0.1; Retention time [2, 9]: 1.75 min
C[C@@H]1O[C@@H](OC[C@H]2O[C@@H](Oc3c(-c4ccc(O)c(O)c4)oc4cc(O)cc(O)c4c3=O)[C@H](O)[C@@H](O)[C@@H]2O)[C@H](O)[C@H](O)[C@H]1O [Rutoside] | 85.0 (80–90) % | 13.43 min | PPB from literature (plasma proteins [1]; reported PPB values of reference compounds, ref not printed, listed as rutoside): 80–90%
O=c1c(O)c(-c2ccc(O)c(O)c2)oc2cc(O)cc(O)c12 [Quercetin] | 98.0% | 0.72 min | –
O=C(O)/C=C/c1ccc(O)c(O)c1 [Caffeic acid] | 66.0% | 4.02 min | –
CNC(=C[N+](=O)[O-])NCCSCc1ccc(CN(C)C)o1 [Ranitidine hydrochloride] | 15.0 (12–18) % | 1.23 min | –
CC(=O)[C@H]1CC[C@H]2[C@@H]3CCC4=CC(=O)CC[C@]4(C)[C@H]3CC[C@]12C [Progesterone] | – | 50.02 min | PPB from literature (plasma proteins [1]): 97.0%
COc1cc(/C=C/C(=O)O)ccc1O [Ferulic acid] | 20.6% | – | Retention time [3]: 1.79 min
CCOc1ccc(NC(C)=O)cc1 [Phenacetin] | 30.0% | 3.19 min | –
CC(C)NCC(O)COc1cccc2ccccc12 (stereo not shown) [Propranolol hydrochloride] | 92.5 (90–95) % | 5.21 min | PPB from literature (plasma proteins [1]; reported PPB values of reference compounds, ref not printed, listed as propranolol hydrochloride): 90–95%
Cc1nc(C)c(C)nc1C.Cl [Chuanxiongzine hydrochloride] | 44.3% | – | Retention time [3]: 2.23 min
CC(=O)OCC(=O)[C@@]1(O)CC[C@H]2[C@@H]3CCC4=CC(=O)CC[C@]4(C)[C@H]3[C@@H](O)C[C@@]21C [Hydrocortisone acetate] | 90.0% | 0.73 min | –
C[C@@](COC12CCN(CC1)CC2)(c1ccccc1)C1CCCC1 [Comp. A] | – | – | fraction unbound (plasma proteins [6]): 0.218; Retention time ([3]; human, 100 µg/mL): 0.76 min
CCN(CC)CCOc1ccc(C(=C(Cl)c2ccccc2)c2ccccc2)cc1 [clomifene citrate] | – | > 240 min | –
O=C1NC(=O)C(c2ccccc2)(c2ccccc2)N1 [Phenytoin sodium] | 90.0% | 15.02 min | –
CC(C)[C@]12O[C@H]1[C@@H]1O[C@]13[C@]1(O[C@H]1C[C@H]1C4=C(CC[C@@]13C)C(=O)OC4)[C@@H]2O [Comp. B] | – | – | fraction unbound at 30 min (plasma proteins [4]): 0.784; Retention time [2, 9]: 1.70 min
Oc1cc(O)c2c(c1)O[C@H](c1ccc(O)c(O)c1)[C@@H](O)C2 [Catechuic acid] | 20.7% | 1.94 min | –
Cn1c(=O)c2c(ncn2C)n(C)c1=O [Caffeine] | 22.5% | 1.18 min | –
Nc1ccc(S(=O)(=O)Nc2ncccn2)cc1 [Sulfadiazine] | 43.0 (38–48) % | 1.88 min | –
CC(=O)NC(Cc1ccc2ccccc2c1)C(=O)NC(Cc1ccc(Cl)cc1)C(=O)NC(Cc1ccccc1)C(=O)NC(CO)C(=O)NC(CCCNC(=N)N)C(=O)NC(Cc1cccnc1)C(=O)NC(CC(C)C)C(=O)NC(CCCNC(=N)N)C(=O)N1CCCC1C(=O)NC(C)C(N)=O (stereo not shown) [Comp. F] (Ac-[2Nal][Phe(4-Cl)]FSR[3Pal]LRPA-NH2; configuration not given here) | – | – | PPB by ultrafiltration (plasma proteins [4]): 97.2%; Retention time [2, 9]: 0.81 min
CN1CCOC(c2ccccc2)c2ccccc2C1 (stereo not shown) [Nefopam hydrochloride] | 73.5 (71–76) % | 7.87 min | PPB from literature (plasma proteins [1]; reported PPB values of reference compounds, ref not printed, listed as nefopam): 71–76%
